Measurements from the supplement of paper PMC10883282.

Assays:
Test in all cases: relative viability vs DMSO control (72 h) (fraction); higher = more viable cells
KHOS-NP = system: KHOS-NP
Outline: (§1)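 Sarcoma cell lines were grown in 384-well plates seeded toward 80–90% confluence and exposed 24 h later to serially diluted compound. After 72 h at 37 °C and 5% CO2, with 0.1% DMSO vehicle and a 5 µM positive control on the plates, ATPLite was read. Relative viability, given as percent growth averaged over up to triplicate wells, was rescaled so that 1 is full and 0 is none.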

A204 = system: A204
Outline: as §1

HS729 = system: HS729
Outline: as §1

HT1080 = system: HT1080
Outline: as §1

SW1353 = system: SW1353
Outline: as §1

MES-SA = system: MES-SA
Outline: as §1

G401 = system: G401
Outline: as §1

SYO-1 = system: SYO-1
Outline: as §1

SK-LMS-1 = system: SK-LMS-1
Outline: as §1

SW872 = system: SW872
Outline: as §1

SW684 = system: SW684
Outline: as §1

VA-ES-BJ = system: VA-ES-BJ
Outline: as §1

O=C1NC(=O)[C@@H](c2cn3c4c(cccc24)CCC3)[C@@H]1c1c[nH]c2ccccc12 [Tivantinib]
Conditions	relative viability
A204, 0.00017 µM	1.08
A204, 0.00051 µM	1.05
A204, 0.00152 µM	1.09
A204, 0.00457 µM	1.11
A204, 0.01372 µM	1.1
A204, 0.04115 µM	1.07
A204, 0.1235 µM	1.06
A204, 0.3704 µM	1.05
A204, 1.111 µM	0.455
A204, 3.333 µM	0.439
A204, 10 µM	0.331
G401, 0.00017 µM	1
G401, 0.00051 µM	1.01
G401, 0.00152 µM	1.03
G401, 0.00457 µM	1.03
G401, 0.01372 µM	1.02
G401, 0.04115 µM	0.982
G401, 0.1235 µM	1.05
G401, 0.3704 µM	0.941
G401, 1.111 µM	0.573
G401, 3.333 µM	0.534
G401, 10 µM	0.367
HS729, 0.00017 µM	0.901
HS729, 0.00051 µM	0.924
HS729, 0.00152 µM	0.917
HS729, 0.00457 µM	0.899
HS729, 0.01372 µM	0.916
HS729, 0.04115 µM	0.865
HS729, 0.1235 µM	0.864
HS729, 0.3704 µM	0.862
HS729, 1.111 µM	0.599
HS729, 3.333 µM	0.621
HS729, 10 µM	0.564
HT1080, 0.00017 µM	1.047
HT1080, 0.00051 µM	1.02
HT1080, 0.00152 µM	1.03
HT1080, 0.00457 µM	1.04
HT1080, 0.01372 µM	1.01
HT1080, 0.04115 µM	1.04
HT1080, 0.1235 µM	1.03
HT1080, 0.3704 µM	1.02
HT1080, 1.111 µM	0.287
HT1080, 3.333 µM	0.128
HT1080, 10 µM	0.0702
KHOS-NP, 0.00017 µM	1.036
KHOS-NP, 0.00051 µM	1.04
KHOS-NP, 0.00152 µM	1.036
KHOS-NP, 0.00457 µM	1.03
KHOS-NP, 0.01372 µM	1.04
KHOS-NP, 0.04115 µM	1.04
KHOS-NP, 0.1235 µM	1.04
KHOS-NP, 0.3704 µM	1.05
KHOS-NP, 1.111 µM	0.541
KHOS-NP, 3.333 µM	0.487
KHOS-NP, 10 µM	0.374
MES-SA, 0.00017 µM	0.9028
MES-SA, 0.00051 µM	0.908
MES-SA, 0.00152 µM	0.92
MES-SA, 0.00457 µM	0.919
MES-SA, 0.01372 µM	0.914
MES-SA, 0.04115 µM	0.888
MES-SA, 0.1235 µM	0.919
MES-SA, 0.3704 µM	0.406
MES-SA, 1.111 µM	0.285
MES-SA, 3.333 µM	0.205
MES-SA, 10 µM	0.1134
SK-LMS-1, 0.00017 µM	1
SK-LMS-1, 0.00051 µM	1.01
SK-LMS-1, 0.00152 µM	0.972
SK-LMS-1, 0.00457 µM	1.002
SK-LMS-1, 0.01372 µM	1
SK-LMS-1, 0.04115 µM	0.965
SK-LMS-1, 0.1235 µM	0.887
SK-LMS-1, 0.3704 µM	0.5799
SK-LMS-1, 1.111 µM	0.497
SK-LMS-1, 3.333 µM	0.385
SK-LMS-1, 10 µM	0.301
SW684, 0.00017 µM	1.15
SW684, 0.00051 µM	1.119
SW684, 0.00152 µM	1.16
SW684, 0.00457 µM	1.123
SW684, 0.01372 µM	1.09
SW684, 0.04115 µM	1.13
SW684, 0.1235 µM	1.1
SW684, 0.3704 µM	0.961
SW684, 1.111 µM	0.783
SW684, 3.333 µM	0.601
SW684, 10 µM	0.636
SW872, 0.00017 µM	0.993
SW872, 0.00051 µM	0.973
SW872, 0.00152 µM	1
SW872, 0.00457 µM	0.996
SW872, 0.01372 µM	0.979
SW872, 0.04115 µM	1.008
SW872, 0.1235 µM	0.967
SW872, 0.3704 µM	0.933
SW872, 1.111 µM	0.473
SW872, 3.333 µM	0.485
SW872, 10 µM	0.467
SW1353, 0.00017 µM	0.982
SW1353, 0.00051 µM	0.9442
SW1353, 0.00152 µM	0.985
SW1353, 0.00457 µM	0.96
SW1353, 0.01372 µM	0.99
SW1353, 0.04115 µM	0.963
SW1353, 0.1235 µM	0.955
SW1353, 0.3704 µM	0.88
SW1353, 1.111 µM	0.666
SW1353, 3.333 µM	0.45
SW1353, 10 µM	0.453
SYO-1, 0.00017 µM	0.934
SYO-1, 0.00051 µM	0.928
SYO-1, 0.00152 µM	0.95
SYO-1, 0.00457 µM	0.924
SYO-1, 0.01372 µM	0.911
SYO-1, 0.04115 µM	0.894
SYO-1, 0.1235 µM	0.861
SYO-1, 0.3704 µM	0.716
SYO-1, 1.111 µM	0.327
SYO-1, 3.333 µM	0.271
SYO-1, 10 µM	0.28
VA-ES-BJ, 0.00017 µM	1.01
VA-ES-BJ, 0.00051 µM	1.03
VA-ES-BJ, 0.00152 µM	1.02
VA-ES-BJ, 0.00457 µM	1.03
VA-ES-BJ, 0.01372 µM	1.01
VA-ES-BJ, 0.04115 µM	1.01
VA-ES-BJ, 0.1235 µM	0.991
VA-ES-BJ, 0.3704 µM	0.76
VA-ES-BJ, 1.111 µM	0.464
VA-ES-BJ, 3.333 µM	0.439
VA-ES-BJ, 10 µM	0.397
